Values after ≈ are worked out from the molar mass of the structure shown. Where two headings read alike, the source gives them in different places.
Columns and labels:
Enterococci faecium = assay: MIC by microdilution in Mueller-Hinton broth against Enterococci faecium strains; type: cell-based, Enterococcus faecium
Bacteroides Strains = assay: MIC by microdilution in Brucella broth against Bacteroides strains; type: cell-based, Bacteroides spp.
CD = assay: Animal model testing of CDI (Syrian Golden Hamster model), survival; type: in vivo
[1] = cited from earlier work
[2] = cited from earlier work; remark: listed apart in the source
[3] = in vivo; cited from earlier work
[4] = CFM formulations suitable for in vivo dosing (Table 18)
CD strain VPI 1063 = assay: MIC of CFM formulations following incubation with feces (supernatants); type: cell-based, Clostridium difficile; conditions: for MIC: Clostridioides difficile
[5] = Enterococcus faecium, E. faecium NR 31903, Mueller-Hinton broth, read-out: MIC
[6] = Enterococcus faecium, E. faecium NR 31909, Mueller-Hinton broth, read-out: MIC
[7] = Enterococcus faecium, E. faecium NR 31912, Mueller-Hinton broth, read-out: MIC
[8] = Enterococcus faecium, E. faecium NR 31915, Mueller-Hinton broth, read-out: MIC
[9] = Enterococcus faecium, E. faecium NR 31916, Mueller-Hinton broth, read-out: MIC
[10] = B. eggerthii HM210, read-out: MIC
[11] = B. fragilis HM709, read-out: MIC
[12] = B. fragilis HM710, read-out: MIC
[13] = B. fragilis HM714, read-out: MIC
[14] = B. stercoris HM1036, read-out: MIC
[15] = Bacteroides, B. spp. HM23, read-out: MIC
[16] = E. faecium NR 31909, Mueller-Hinton broth
[17] = E. faecium NR 31912, Mueller-Hinton broth
[18] = E. faecium NR 31915, Mueller-Hinton broth
[19] = E. faecium NR 31916, Mueller-Hinton broth
[20] = E. faecium NR 31903, Mueller-Hinton broth

CC(C)N=c1cc2n(-c3ccc(Cl)cc3)c3ccccc3nc-2cc1Nc1ccc(Cl)cc1 [CFM, 3-(p-chloroanilino)-10-(p-chlorophenyl)-2,10-dihydro-2-iso-propyliminophenazine]
MIC (Enterococci faecium; [5]): 4 µg/mL (≈ 8.45 µM) | MIC (Enterococci faecium; [6]): 2 µg/mL (≈ 4.22 µM) | MIC (Enterococci faecium; [7]): 2 µg/mL (≈ 4.22 µM) | MIC (Enterococci faecium; [8]): 16 µg/mL (≈ 33.8 µM) | MIC (Enterococci faecium; [9]): 8 µg/mL (≈ 16.9 µM) | MIC (Bacteroides Strains; B. caccae HM728, read-out: MIC): 1 µg/mL (≈ 2.11 µM) | MIC (Bacteroides Strains; [10]): 2 µg/mL (≈ 4.22 µM) | MIC (Bacteroides Strains; [11]): 4 µg/mL (≈ 8.45 µM) | MIC (Bacteroides Strains; [12]): 2 µg/mL (≈ 4.22 µM) | MIC (Bacteroides Strains; [13]): 2 µg/mL (≈ 4.22 µM) | MIC (Bacteroides Strains; B. ovatus HM222, read-out: MIC): 0.25 µg/mL (≈ 0.528 µM) | MIC (Bacteroides Strains; [14]): 0.5 µg/mL (≈ 1.06 µM) | MIC (Bacteroides Strains; Bacteroides, B. spp. HM18): 4 µg/mL (≈ 8.45 µM) | MIC (Bacteroides Strains; Bacteroides, B. spp. HM19): 1 µg/mL (≈ 2.11 µM) | MIC (Bacteroides Strains; [15]): 2 µg/mL (≈ 4.22 µM) | MIC (Bacteroides Strains; Bacteroides, B. spp. HM27): 1 µg/mL (≈ 2.11 µM) | MIC (Bacteroides Strains; Bacteroides, B. spp. HM58): 1 µg/mL (≈ 2.11 µM) | protection at higher dosages (CD; 20 and 40 mg/kg versus 10 mg/kg): did not increase the protection | protection during 28 days of observation (CD; CFM dosage of 10 mg/kg): 30% | survival for 27 days (CD; CFM in aqueous suspension of CMC at 10 mg/kg/once a day): 30% | protection on animal survival by day 9 after infection (CD; CFM in aqueous suspension of CMC, oral, 10 mg/kg/day, 5 days): 50% | survival by day 7 (CD; drug alone at the same dosage as in the combination (Lamprene 10 mg/kg twice a day)): 0% | solubility in water [1]: 0.225 µg/mL (≈ 0.475 µM) | half-life ([2]; after a single dose of 100 mg): about 10 days | half-life ([2]; following long-term high dosage of 300 mg): about 70 days | orally absorbed bioavailability ([2]; in vivo, po): 45-65% | gastrointestinal conditions including abdominal and epigastric pain, nausea, vomiting and/or diarrhea [3]: 40-50 % of patients | icothyosis and dryness of skin [3]: 8-28 % of patients | ocular conditions including conjunctival pigmentation, itching and dryness [3]: approximately 1 % of patients | rash and pruritus [3]: 1-5 % of patients | skin pigmentation [3]: 75-100 % of patients | solubility ([4]; Cremophor-EL (100%, liquid), organic solvent or mixture, in Cremophor-EL, liquid, 100%): 8000 µg/mL (≈ 16900 µM) | solubility ([4]; Cremophor-EL (100%, liquid), organic solvent or mixture, in Cremophor-EL, liquid, 100%, if kept for long time (3-5 days)): 10000 µg/mL (≈ 21100 µM) | solubility ([4]; Phosal 50 PG (phospholipids), oil or lipid, in Phosal 50 PG (phospholipids), thick oily liquid): 10000 µg/mL (≈ 21100 µM) | solubility ([4]; Phosal 53 MCT (phospholipids), oil or lipid, in Phosal 53 MCT (phospholipids), thick oily liquid): 10000 µg/mL (≈ 21100 µM) | solubility ([4]; Tween 80 (100%, liquid), organic solvent or mixture, in Tween 80, liquid, 100%): 12000 µg/mL (≈ 25300 µM) | solubility ([4]; Tween 80 (100%, liquid), organic solvent or mixture, in Tween 80, liquid, 100%, if kept for long time (3-5 days)): 15000 µg/mL (≈ 31700 µM) | Stability ([4]; in Cremophor-EL, liquid, 100%, remains stable following dilution in water/medium/saline/PBS): Stable, and remains | Stability ([4]; in Olive oil, canola oil, and coconut oil, diluted only in oils, forms emulsions in water): Stable, should be | Stability ([4]; in Phosal 50 PG (phospholipids), forms emulsion in water): Stable, clear, thick | Stability ([4]; in Phosal 53 MCT (phospholipids), forms emulsion in water): Stable, clear, thick | Stability ([4]; in Tween 80, liquid, 100%, stable after dilution in water or culture medium, PBS, precipitates slowly in saline): Stable undiluted, | solubility ([4]; olive oil, canola oil, and coconut oil (100%, liquid), oil or lipid, in Olive oil, canola oil, and coconut oil, liquid, 100%): 5000 µg/mL (≈ 10600 µM) | solubility ([4]; polyethylene glycol (PEG-300, PEG-400), 100%, liquid, organic solvent or mixture, in Polyethylene glycol (PEG-300, PEG-400)): 5000 µg/mL (≈ 10600 µM)

Cc1ncc([N+](=O)[O-])n1CCO [MET, metronidazole]
MIC (Enterococci faecium; [5]): > 32 µg/mL | MIC (Enterococci faecium; [6]): > 32 µg/mL | MIC (Enterococci faecium; [7]): > 32 µg/mL | MIC (Enterococci faecium; [8]): > 32 µg/mL | MIC (Enterococci faecium; [9]): > 32 µg/mL | MIC (Bacteroides Strains; B. caccae HM728, read-out: MIC): 0.25 µg/mL (≈ 1.46 µM) | MIC (Bacteroides Strains; [10]): 0.5 µg/mL (≈ 2.92 µM) | MIC (Bacteroides Strains; [11]): 1 µg/mL (≈ 5.84 µM) | MIC (Bacteroides Strains; [12]): 0.5 µg/mL (≈ 2.92 µM) | MIC (Bacteroides Strains; [13]): 1 µg/mL (≈ 5.84 µM) | MIC (Bacteroides Strains; B. ovatus HM222, read-out: MIC): 0.5 µg/mL (≈ 2.92 µM) | MIC (Bacteroides Strains; [14]): 0.25 µg/mL (≈ 1.46 µM) | MIC (Bacteroides Strains; Bacteroides, B. spp. HM18): 4 µg/mL (≈ 23.4 µM) | MIC (Bacteroides Strains; Bacteroides, B. spp. HM19): 1 µg/mL (≈ 5.84 µM) | MIC (Bacteroides Strains; Bacteroides, B. spp. HM22): 0.5 µg/mL (≈ 2.92 µM) | MIC (Bacteroides Strains; [15]): 0.25 µg/mL (≈ 1.46 µM) | MIC (Bacteroides Strains; Bacteroides, B. spp. HM27): 0.5 µg/mL (≈ 2.92 µM) | MIC (Bacteroides Strains; Bacteroides, B. spp. HM28): 2 µg/mL (≈ 11.7 µM) | MIC (Bacteroides Strains; Bacteroides, B. spp. HM58): 2 µg/mL (≈ 11.7 µM) | MIC in Fecal extracts (CD strain VPI 1063; 128 μg/ml in 20% feces, 2 hours at 37° C., centrifuged, supernatants filter sterilized and tested, CD strain VPI 1063): >32 µg/mL | MIC (CD strain VPI 1063; VPI1063, 128 μg/ml in 20% feces, 2 hours at 37° C., centrifuged, supernatants filter sterilized and tested, CD strain VPI 1063, read-out: MIC in Fecal extracts): > 32 µg/mL | MIC (CD strain VPI 1063; VPI1063, serial dilutions in BHI, without centrifugation, CD strain VPI 1063, read-out: MIC in BHI control): 0.062 µg/mL

CN[C@H](CC(C)C)C(=O)N[C@H]1C(=O)N[C@@H](CC(N)=O)C(=O)N[C@H]2C(=O)N[C@H]3C(=O)N[C@H](C(=O)N[C@H](C(=O)O)c4cc(O)cc(O)c4-c4cc3ccc4O)[C@H](O)c3ccc(c(Cl)c3)Oc3cc2cc(c3O[C@@H]2O[C@H](CO)[C@@H](O)[C@H](O)[C@H]2O[C@H]2C[C@](C)(N)[C@H](O)[C@H](C)O2)Oc2ccc(cc2Cl)[C@H]1O [VAN, vancomycin]
MIC (Enterococci faecium; [16]): >32 µg/mL | MIC (Enterococci faecium; [17]): >32 µg/mL | MIC (Enterococci faecium; [18]): >32 µg/mL | MIC (Enterococci faecium; [19]): >32 µg/mL | MIC (Enterococci faecium; Enterococcus faecium): > 32 µg/mL | survival by day 14 (CD; drug alone at the same dosage as in the combination (VAN 5 mg/kg twice a day)): 0% | MIC (CD strain VPI 1063; VPI1063, 2 h, read-out: MIC in Centrifuged BHI control): 0.5 µg/mL | MIC (CD strain VPI 1063; VPI1063, 2 h, read-out: MIC in Fecal extracts): 1 µg/mL | MIC (CD strain VPI 1063; VPI1063, read-out: MIC in BHI control): 0.5 µg/mL | increase in MIC after incubation in feces (CD strain VPI 1063; Table 21): 2 fold

CCN=c1cc2n(-c3ccc(Cl)cc3)c3ccccc3nc-2cc1Nc1ccc(Cl)cc1 [B746]
MIC (Enterococci faecium; [20]): 2 µg/mL (≈ 4.35 µM) | MIC (Enterococci faecium; [16]): 2 µg/mL (≈ 4.35 µM) | MIC (Enterococci faecium; [17]): 2 µg/mL (≈ 4.35 µM) | MIC (Enterococci faecium; [18]): 2 µg/mL (≈ 4.35 µM) | MIC (Enterococci faecium; [19]): 2 µg/mL (≈ 4.35 µM) | MIC (Bacteroides Strains; B. caccae HM728): 1 µg/mL (≈ 2.18 µM) | MIC (Bacteroides Strains; B. eggerthii HM210): 2 µg/mL (≈ 4.35 µM) | MIC (Bacteroides Strains; B. fragilis HM709): 4 µg/mL (≈ 8.71 µM) | MIC (Bacteroides Strains; B. fragilis HM710): 2 µg/mL (≈ 4.35 µM) | MIC (Bacteroides Strains; B. fragilis HM714): 4 µg/mL (≈ 8.71 µM) | MIC (Bacteroides Strains; B. ovatus HM222): 0.25 µg/mL (≈ 0.544 µM) | MIC (Bacteroides Strains; B. spp. HM18): 1 µg/mL (≈ 2.18 µM) | MIC (Bacteroides Strains; B. spp. HM19): 2 µg/mL (≈ 4.35 µM) | MIC (Bacteroides Strains; B. spp. HM20): 1 µg/mL (≈ 2.18 µM) | MIC (Bacteroides Strains; B. spp. HM22): 1 µg/mL (≈ 2.18 µM) | MIC (Bacteroides Strains; B. spp. HM23): 2 µg/mL (≈ 4.35 µM) | MIC (Bacteroides Strains; B. spp. HM27): 1 µg/mL (≈ 2.18 µM) | MIC (Bacteroides Strains; B. spp. HM28): 2 µg/mL (≈ 4.35 µM) | MIC (Bacteroides Strains; B. spp. HM58): 1 µg/mL (≈ 2.18 µM) | MIC (Bacteroides Strains; B. stercoris HM1036): 1 µg/mL (≈ 2.18 µM)

CCN=c1cc2n(-c3cccc(C(F)(F)F)c3)c3ccccc3nc-2cc1Nc1cccc(C(F)(F)F)c1 [B4129]
MIC (Enterococci faecium; [20]): >32 µg/mL | MIC (Enterococci faecium; [16]): >32 µg/mL | MIC (Enterococci faecium; [17]): >32 µg/mL | MIC (Enterococci faecium; [18]): >32 µg/mL | MIC (Enterococci faecium; [19]): >32 µg/mL | MIC (Bacteroides Strains; B. caccae HM728): 2 µg/mL (≈ 3.8 µM) | MIC (Bacteroides Strains; B. eggerthii HM210): 2 µg/mL (≈ 3.8 µM) | MIC (Bacteroides Strains; B. fragilis HM709): 2 µg/mL (≈ 3.8 µM) | MIC (Bacteroides Strains; B. fragilis HM710): 2 µg/mL (≈ 3.8 µM) | MIC (Bacteroides Strains; B. fragilis HM714): 4 µg/mL (≈ 7.6 µM) | MIC (Bacteroides Strains; B. ovatus HM222): 0.25 µg/mL (≈ 0.475 µM) | MIC (Bacteroides Strains; B. spp. HM18): 16 µg/mL (≈ 30.4 µM) | MIC (Bacteroides Strains; B. spp. HM19): 0.5 µg/mL (≈ 0.95 µM) | MIC (Bacteroides Strains; B. spp. HM20): 2 µg/mL (≈ 3.8 µM) | MIC (Bacteroides Strains; B. spp. HM22): 2 µg/mL (≈ 3.8 µM) | MIC (Bacteroides Strains; B. spp. HM23): 16 µg/mL (≈ 30.4 µM) | MIC (Bacteroides Strains; B. spp. HM27): 1 µg/mL (≈ 1.9 µM) | MIC (Bacteroides Strains; B. spp. HM28): 2 µg/mL (≈ 3.8 µM) | MIC (Bacteroides Strains; B. spp. HM58): 2 µg/mL (≈ 3.8 µM) | MIC (Bacteroides Strains; B. stercoris HM1036): 0.25 µg/mL (≈ 0.475 µM)
